Results: patent US12077503B2, “Substituted cyclic amides and their use as herbicides” (FMC CORPORATION, priority 2015, dated 2024)

Experiments:
Type in all cases: in vivo
[1] = tested on: barnyardgrass (Echinochloa crus-galli); assay: Test G Pre-Emergence Protocol; details: Echinochloa crus-galli, pre-emergence, 312 h, evaluated after 13 days; for pest or weed control at 15.625 g/ha: 15.625 g ai/ha; for pest or weed control at 15.625 g/ha / pest or weed control at 250 g/ha: read-out: Barnyardgrass damage rating (100=total damage to plant; 0=no damage to plant); for pest or weed control at 62.5 g/ha: 62.5 g ai/ha, 100=total damage to plant, 0=no damage to plant, read-out: Barnyardgrass damage rating; for pest or weed control at 250 g/ha: 250 g ai/ha
Procedure, shortened: (§1)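 One day after sowing, pots are treated with a spray of test compound formulated in acetone/water 50:50 plus 0.5% Tween 20, giving 15.625, 62.5 or 250 g/ha. Evaluation on a 0–100 damage scale follows 13 days of glasshouse growth.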

corn (Zea mays) [2] = assay: Test G Pre-Emergence Protocol; details: Zea mays, pre-emergence, 312 h, evaluated after 13 days; for plant injury at 15.625 g/ha: 15.625 g ai/ha; for plant injury at 15.625 g/ha / plant injury at 250 g/ha: read-out: Corn damage rating (100=total damage to plant; 0=no damage to plant); for plant injury at 62.5 g/ha: 62.5 g ai/ha, 100=total damage to plant, 0=no damage to plant, read-out: Corn damage rating; for plant injury at 250 g/ha: 250 g ai/ha
Procedure, shortened: as §1

[3] = tested on: giant foxtail (Setaria faberi); assay: Test G Pre-Emergence Protocol; details: Setaria faberi, pre-emergence, 312 h, evaluated after 13 days; for pest or weed control at 15.625 g/ha: 15.625 g ai/ha; for pest or weed control at 15.625 g/ha / pest or weed control at 250 g/ha: read-out: Foxtail, Giant damage rating (100=total damage to plant; 0=no damage to plant); for pest or weed control at 62.5 g/ha: 62.5 g ai/ha, 100=total damage to plant, 0=no damage to plant, read-out: Foxtail, Giant damage rating; for pest or weed control at 250 g/ha: 250 g ai/ha
Procedure, shortened: as §1

[4] = tested on: ivy-leaved morning glory (Ipomoea hederacea); assay: Test G Pre-Emergence Protocol; details: Ipomoea, pre-emergence, 312 h, evaluated after 13 days; for pest or weed control at 15.625 g/ha: 15.625 g ai/ha; for pest or weed control at 15.625 g/ha / pest or weed control at 250 g/ha: read-out: Morningglory, Ivy-leaved damage rating (100=total damage to plant; 0=no damage to plant); for pest or weed control at 62.5 g/ha: 62.5 g ai/ha, 100=total damage to plant, 0=no damage to plant, read-out: Morningglory, Ivy-leaved damage rating; for pest or weed control at 250 g/ha: 250 g ai/ha
Procedure, shortened: as §1

[5] = tested on: redroot pigweed (Amaranthus retroflexus); assay: Test G Pre-Emergence Protocol; details: Amaranthus retroflexus, pre-emergence, 312 h, evaluated after 13 days; for pest or weed control at 15.625 g/ha: 15.625 g ai/ha; for pest or weed control at 15.625 g/ha / pest or weed control at 250 g/ha: read-out: Pigweed, Redroot damage rating (100=total damage to plant; 0=no damage to plant); for pest or weed control at 62.5 g/ha: 62.5 g ai/ha, 100=total damage to plant, 0=no damage to plant, read-out: Pigweed, Redroot damage rating; for pest or weed control at 250 g/ha: 250 g ai/ha
Procedure, shortened: as §1

[6] = tested on: velvetleaf (Abutilon theophrasti); assay: Test G Pre-Emergence Protocol; details: Abutilon theophrasti, pre-emergence, 312 h, evaluated after 13 days; for pest or weed control at 15.625 g/ha: 15.625 g ai/ha; for pest or weed control at 15.625 g/ha / pest or weed control at 250 g/ha: read-out: Velvetleaf damage rating (100=total damage to plant; 0=no damage to plant); for pest or weed control at 62.5 g/ha: 62.5 g ai/ha, 100=total damage to plant, 0=no damage to plant, read-out: Velvetleaf damage rating; for pest or weed control at 250 g/ha: 250 g ai/ha
Procedure, shortened: as §1

[7] = tested on: barnyardgrass (Echinochloa crus-galli); assay: Test G Post-Emergence Protocol; details: Echinochloa crus-galli, post-emergence, 312 h, read-out: Barnyardgrass damage rating; for pest or weed control at 15.625 g/ha: 15.625 g ai/ha, evaluated after 13 days (100=total damage to plant; 0=no damage to plant); for pest or weed control at 62.5 g/ha: 62.5 g ai/ha; for pest or weed control at 62.5 g/ha / pest or weed control at 250 g/ha: evaluated after 13 days, 100=total damage to plant, 0=no damage to plant; for pest or weed control at 250 g/ha: 250 g ai/ha
Procedure, shortened: (§2)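 Damage was rated 13 days after treatment from 0 (none) to 100 (plant killed). Compound was applied as a spray at 15.625, 62.5 or 250 g/ha in 50:50 acetone/water containing 0.5% Tween 20, onto 8-day-old potted plants kept in a glasshouse (24/16 °C, 14 h light, 65% humidity).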

corn (Zea mays) [8] = assay: Test G Post-Emergence Protocol; details: Zea mays, post-emergence, 312 h, read-out: Corn damage rating; for plant injury at 15.625 g/ha: 15.625 g ai/ha, evaluated after 13 days (100=total damage to plant; 0=no damage to plant); for plant injury at 62.5 g/ha: 62.5 g ai/ha; for plant injury at 62.5 g/ha / plant injury at 250 g/ha: evaluated after 13 days, 100=total damage to plant, 0=no damage to plant; for plant injury at 250 g/ha: 250 g ai/ha
Procedure, shortened: as §2

[9] = tested on: giant foxtail (Setaria faberi); assay: Test G Post-Emergence Protocol; details: Setaria faberi, post-emergence, 312 h, read-out: Foxtail, Giant damage rating; for pest or weed control at 15.625 g/ha: 15.625 g ai/ha, evaluated after 13 days (100=total damage to plant; 0=no damage to plant); for pest or weed control at 62.5 g/ha: 62.5 g ai/ha; for pest or weed control at 62.5 g/ha / pest or weed control at 250 g/ha: evaluated after 13 days, 100=total damage to plant, 0=no damage to plant; for pest or weed control at 250 g/ha: 250 g ai/ha
Procedure, shortened: as §2

[10] = tested on: ivy-leaved morning glory (Ipomoea hederacea); assay: Test G Post-Emergence Protocol; details: Ipomoea, post-emergence, 312 h, read-out: Morningglory, Ivy-leaved damage rating; for pest or weed control at 15.625 g/ha: 15.625 g ai/ha, evaluated after 13 days (100=total damage to plant; 0=no damage to plant); for pest or weed control at 62.5 g/ha: 62.5 g ai/ha; for pest or weed control at 62.5 g/ha / pest or weed control at 250 g/ha: evaluated after 13 days, 100=total damage to plant, 0=no damage to plant; for pest or weed control at 250 g/ha: 250 g ai/ha
Procedure, shortened: as §2

[11] = tested on: redroot pigweed (Amaranthus retroflexus); assay: Test G Post-Emergence Protocol; details: Amaranthus retroflexus, post-emergence, 312 h, read-out: Pigweed, Redroot damage rating; for pest or weed control at 15.625 g/ha: 15.625 g ai/ha, evaluated after 13 days (100=total damage to plant; 0=no damage to plant); for pest or weed control at 62.5 g/ha: 62.5 g ai/ha; for pest or weed control at 62.5 g/ha / pest or weed control at 250 g/ha: evaluated after 13 days, 100=total damage to plant, 0=no damage to plant; for pest or weed control at 250 g/ha: 250 g ai/ha
Procedure, shortened: as §2

[12] = tested on: velvetleaf (Abutilon theophrasti); assay: Test G Post-Emergence Protocol; details: Abutilon theophrasti, post-emergence, 312 h, read-out: Velvetleaf damage rating; for pest or weed control at 15.625 g/ha: 15.625 g ai/ha, evaluated after 13 days (100=total damage to plant; 0=no damage to plant); for pest or weed control at 62.5 g/ha: 62.5 g ai/ha; for pest or weed control at 62.5 g/ha / pest or weed control at 250 g/ha: evaluated after 13 days, 100=total damage to plant, 0=no damage to plant; for pest or weed control at 250 g/ha: 250 g ai/ha
Procedure, shortened: as §2

SMILES | pest or weed control at 15.625 g/ha [1] | pest or weed control at 62.5 g/ha [1] | pest or weed control at 250 g/ha [1] | plant injury at 15.625 g/ha (corn (Zea mays) [2]) | plant injury at 62.5 g/ha (corn (Zea mays) [2]) | plant injury at 250 g/ha (corn (Zea mays) [2]) | pest or weed control at 15.625 g/ha [3] | pest or weed control at 62.5 g/ha [3] | pest or weed control at 250 g/ha [3] | pest or weed control at 15.625 g/ha [4] | pest or weed control at 62.5 g/ha [4] | pest or weed control at 250 g/ha [4] | pest or weed control at 15.625 g/ha [5] | pest or weed control at 62.5 g/ha [5] | pest or weed control at 250 g/ha [5] | pest or weed control at 15.625 g/ha [6] | pest or weed control at 62.5 g/ha [6] | pest or weed control at 250 g/ha [6] | pest or weed control at 15.625 g/ha [7] | pest or weed control at 62.5 g/ha [7] | other results
COC(=O)c1cc([C@H]2CN(C)C(=O)[C@@H]2C(=O)Nc2cccc(F)c2F)ccc1F (racemic) [Compound 1678] | 0% | 0% | 0% | 0% | 0% | 0% | 0% | 0% | 0% | 0% | 0% | 0% | 0% | 0% | 0% | 0% | 0% | 0% | 0% | 10% | pest or weed control at 250 g/ha [7]: 30%; plant injury at 15.625 g/ha (corn (Zea mays) [8]): 0%; plant injury at 62.5 g/ha (corn (Zea mays) [8]): 0%; plant injury at 250 g/ha (corn (Zea mays) [8]): 0%; pest or weed control at 15.625 g/ha [9]: 0%; pest or weed control at 62.5 g/ha [9]: 10%; pest or weed control at 250 g/ha [9]: 20%; pest or weed control at 15.625 g/ha [10]: 0%; pest or weed control at 62.5 g/ha [10]: 0%; pest or weed control at 250 g/ha [10]: 0%; pest or weed control at 15.625 g/ha [11]: 10%; pest or weed control at 62.5 g/ha [11]: 10%; pest or weed control at 250 g/ha [11]: 30%; pest or weed control at 15.625 g/ha [12]: 0%; pest or weed control at 62.5 g/ha [12]: 0%; pest or weed control at 250 g/ha [12]: 0%
CN1CC(c2cc(F)cc(OCC(F)(F)F)c2)C(C(=O)Nc2cccc(F)c2F)C1=O (stereo not drawn) [Compound 1698] | 60% | 70% | 80% | 0% | 30% | 70% | 70% | 70% | 90% | 10% | 0% | 20% | 0% | 10% | 40% | 0% | 10% | 20% | 60% | 80% | pest or weed control at 250 g/ha [7]: 80%; plant injury at 15.625 g/ha (corn (Zea mays) [8]): 20%; plant injury at 62.5 g/ha (corn (Zea mays) [8]): 70%; plant injury at 250 g/ha (corn (Zea mays) [8]): 70%; pest or weed control at 15.625 g/ha [9]: 80%; pest or weed control at 62.5 g/ha [9]: 80%; pest or weed control at 250 g/ha [9]: 80%; pest or weed control at 15.625 g/ha [10]: 10%; pest or weed control at 62.5 g/ha [10]: 70%; pest or weed control at 250 g/ha [10]: 70%; pest or weed control at 15.625 g/ha [11]: 20%; pest or weed control at 62.5 g/ha [11]: 30%; pest or weed control at 250 g/ha [11]: 60%; pest or weed control at 15.625 g/ha [12]: 0%; pest or weed control at 62.5 g/ha [12]: 10%; pest or weed control at 250 g/ha [12]: 50%
